Active and inactive are the calls of the source. No cut-off for these calls is given here.
Tests used:
Rattus norvegicus [1] = assay: Effect on protein deficiency diet induced bone loss in Sprague-Dawley rat assessed as increase in L3 vertebral bone mineral density at 1 to 10 mg, po supplemented with protein deficient diet for one month followed by compound treatment and measured after 4 weeks; assay type: functional, organism-based; conditions: dose 1-10 mg
Rattus norvegicus [2] = assay: Effect on protein deficiency diet induced bone loss in Sprague-Dawley rat assessed as change in serum alkaline phosphatase level at 1 mg, po supplemented with protein deficient diet for one month followed by compound treatment and measured after 4 weeks; assay type: functional
Rattus norvegicus [3] = assay: Effect on protein deficiency diet induced bone loss in Sprague-Dawley rat assessed as change in serum TGA level at 10 mg, po supplemented with protein deficient diet for one month followed by compound treatment and measured after 4 weeks; assay type: functional
Rattus norvegicus [4] = assay: Effect on protein deficiency diet induced bone loss in Sprague-Dawley rat assessed as change in phosphate ion level in serum at 1 mg, po supplemented with protein deficient diet for one month followed by compound treatment and measured after 4 weeks; assay type: functional
Rattus norvegicus [5] = assay: Effect on protein deficiency diet induced bone loss in Sprague-Dawley rat assessed as change in tibia length at 1 mg, po supplemented with protein deficient diet for one month followed by compound treatment and measured after 4 weeks; assay type: functional
Rattus norvegicus [6] = assay: Effect on protein deficiency diet induced bone loss in Sprague-Dawley rat assessed as change in serum alkaline phosphatase level at 10 mg, po supplemented with protein deficient diet for one month followed by compound treatment and measured after 4 weeks; assay type: functional
Rattus norvegicus [7] = assay: Effect on protein deficiency diet induced bone loss in Sprague-Dawley rat assessed as increase in bone mineral density at TFSP region of tibia at 10 mg, po supplemented with protein deficient diet for one month followed by compound treatment and measured after 4 weeks; assay type: functional, organism-based
Rattus norvegicus [8] = assay: Effect on protein deficiency diet induced bone loss in Sprague-Dawley rat assessed as increase in bone mineral density at neck of femur at 10 mg, po supplemented with protein deficient diet for one month followed by compound treatment and measured after 4 weeks; assay type: functional, organism-based
Mesenchymal stem cells = assay: Induction of osteoblast differentiation in bone marrow mesenchymal stem cells isolated from Sprague-Dawley rat model of protein deficiency diet induced bone loss assessed as increase in mineralized nodule formation at 1 to 10 mg, po supplemented with protein deficient diet for one month followed by compound treatment and measured after 4 weeks by Alizarin Red-S staining based analysis; assay type: functional, organism-based; conditions: dose 1-10 mg
Rattus norvegicus [9] = assay: Effect on protein deficiency diet induced bone loss in Sprague-Dawley rat assessed as increase in bone mineral density at midshaft of femur at 10 mg, po supplemented with protein deficient diet for one month followed by compound treatment and measured after 4 weeks; assay type: functional, organism-based
Rattus norvegicus [10] = assay: Effect on protein deficiency diet induced bone loss in Sprague-Dawley rat assessed as increase in L2 vertebral bone mineral density at 1 to 10 mg, po supplemented with protein deficient diet for one month followed by compound treatment and measured after 4 weeks; assay type: functional, organism-based; conditions: dose 1-10 mg
Rattus norvegicus [11] = assay: Effect on protein deficiency diet induced bone loss in Sprague-Dawley rat assessed as increase in global vertebral bone mineral density at 1 to 10 mg, po supplemented with protein deficient diet for one month followed by compound treatment and measured after 4 weeks; assay type: functional, organism-based; conditions: dose 1-10 mg
Rattus norvegicus [12] = assay: Effect on protein deficiency diet induced bone loss in Sprague-Dawley rat assessed as change in serum albumin level at 1 mg, po supplemented with protein deficient diet for one month followed by compound treatment and measured after 4 weeks; assay type: functional
Rattus norvegicus [13] = assay: Effect on protein deficiency diet induced bone loss in Sprague-Dawley rat assessed as increase in global tibial bone mineral density at 1 mg, po supplemented with protein deficient diet for one month followed by compound treatment and measured after 4 weeks; assay type: functional, organism-based
Rattus norvegicus [14] = assay: Effect on protein deficiency diet induced bone loss in Sprague-Dawley rat assessed as change in serum total protein level at 10 mg, po supplemented with protein deficient diet for one month followed by compound treatment and measured after 4 weeks; assay type: functional
Rattus norvegicus [15] = assay: Effect on protein deficiency diet induced bone loss in Sprague-Dawley rat assessed as increase in bone mineral density at proximal head of tibia at 1 mg, po supplemented with protein deficient diet for one month followed by compound treatment and measured after 4 weeks; assay type: functional, organism-based
Rattus norvegicus [16] = assay: Effect on protein deficiency diet induced bone loss in Sprague-Dawley rat assessed as increase in L4 vertebral bone mineral density at 1 to 10 mg, po supplemented with protein deficient diet for one month followed by compound treatment and measured after 4 weeks; assay type: functional, organism-based; conditions: dose 1-10 mg
Rattus norvegicus [17] = assay: Effect on protein deficiency diet induced bone loss in Sprague-Dawley rat assessed as change in serum total protein level at 1 mg, po supplemented with protein deficient diet for one month followed by compound treatment and measured after 4 weeks; assay type: functional
Rattus norvegicus [18] = assay: Effect on protein deficiency diet induced bone loss in Sprague-Dawley rat assessed as increase in L1 vertebral bone mineral density at 1 to 10 mg, po supplemented with protein deficient diet for one month followed by compound treatment and measured after 4 weeks; assay type: functional, organism-based; conditions: dose 1-10 mg
Rattus norvegicus [19] = assay: Effect on protein deficiency diet induced bone loss in Sprague-Dawley rat assessed as change in serum albumin level at 10 mg, po supplemented with protein deficient diet for one month followed by compound treatment and measured after 4 weeks; assay type: functional
Rattus norvegicus [20] = assay: Effect on protein deficiency diet induced bone loss in Sprague-Dawley rat assessed as increase in global tibial bone mineral density at 10 mg, po supplemented with protein deficient diet for one month followed by compound treatment and measured after 4 weeks; assay type: functional, organism-based
Rattus norvegicus [21] = assay: Effect on protein deficiency diet induced bone loss in Sprague-Dawley rat assessed as change in serum creatinine level at 1 mg, po supplemented with protein deficient diet for one month followed by compound treatment and measured after 4 weeks; assay type: functional
Rattus norvegicus [22] = assay: Effect on protein deficiency diet induced bone loss in Sprague-Dawley rat assessed as change in serum TGA level at 1 mg, po supplemented with protein deficient diet for one month followed by compound treatment and measured after 4 weeks; assay type: functional
Rattus norvegicus [23] = assay: Effect on protein deficiency diet induced bone loss in Sprague-Dawley rat assessed as increase in global femur bone mineral density at 10 mg, po supplemented with protein deficient diet for one month followed by compound treatment and measured after 4 weeks; assay type: functional, organism-based
Rattus norvegicus [24] = assay: Effect on protein deficiency diet induced bone loss in Sprague-Dawley rat assessed as change in femur length at 1 mg, po supplemented with protein deficient diet for one month followed by compound treatment and measured after 4 weeks; assay type: functional
Rattus norvegicus [25] = assay: Effect on protein deficiency diet induced bone loss in Sprague-Dawley rat assessed as change in body weight at 1 mg, po supplemented with protein deficient diet for one month followed by compound treatment and measured twice a week for 4 weeks; assay type: functional
Rattus norvegicus [26] = assay: Effect on protein deficiency diet induced bone loss in Sprague-Dawley rat assessed as change in phosphate ion level in serum at 10 mg, po supplemented with protein deficient diet for one month followed by compound treatment and measured after 4 weeks; assay type: functional
Rattus norvegicus [27] = assay: Effect on protein deficiency diet induced bone loss in Sprague-Dawley rat assessed as change in serum creatinine level at 10 mg, po supplemented with protein deficient diet for one month followed by compound treatment and measured after 4 weeks; assay type: functional
Rattus norvegicus [28] = assay: Effect on protein deficiency diet induced bone loss in Sprague-Dawley rat assessed as change in body weight at 10 mg, po supplemented with protein deficient diet for one month followed by compound treatment and measured twice a week for 4 weeks; assay type: functional
Rattus norvegicus [29] = assay: Effect on protein deficiency diet induced bone loss in Sprague-Dawley rat assessed as change in serum urea level at 1 mg, po supplemented with protein deficient diet for one month followed by compound treatment and measured after 4 weeks; assay type: functional
Rattus norvegicus [30] = assay: Effect on protein deficiency diet induced bone loss in Sprague-Dawley rat assessed as change in femur length at 10 mg, po supplemented with protein deficient diet for one month followed by compound treatment and measured after 4 weeks; assay type: functional
Rattus norvegicus [31] = assay: Effect on protein deficiency diet induced bone loss in Sprague-Dawley rat assessed as change in serum urea level at 10 mg, po supplemented with protein deficient diet for one month followed by compound treatment and measured after 4 weeks; assay type: functional
Rattus norvegicus [32] = assay: Effect on protein deficiency diet induced bone loss in Sprague-Dawley rat assessed as increase in bone mineral density at proximal head of tibia at 10 mg, po supplemented with protein deficient diet for one month followed by compound treatment and […]; assay type: functional, organism-based
Rattus norvegicus [33] = assay: Effect on protein deficiency diet induced bone loss in Sprague-Dawley rat assessed as increase in bone mineral density at TFSP region of tibia at 1 mg, po supplemented with protein deficient diet for one month followed by compound treatment and measured after 4 weeks; assay type: functional, organism-based
Rattus norvegicus [34] = assay: Effect on protein deficiency diet induced bone loss in Sprague-Dawley rat assessed as change in tibia length at 10 mg, po supplemented with protein deficient diet for one month followed by compound treatment and measured after 4 weeks; assay type: functional

Oc1ccc2c(c1)OCC1c3ccccc3OC21 (stereo not given)
Activity (Rattus norvegicus [1]): Active
Activity (Rattus norvegicus [2]): 377.2 IU/L
Activity (Rattus norvegicus [3]): 23.9333 mg/dL
Activity (Rattus norvegicus [4]): 4.346 mg/dL
Activity (Rattus norvegicus [5]): 2.647 cm
Activity (Rattus norvegicus [6]): 512.55 IU/L
Activity (Rattus norvegicus [7]): Active
Activity (Rattus norvegicus [8]): Active
Activity (Mesenchymal stem cells): Active
Activity (Rattus norvegicus [9]): Active
Activity (Rattus norvegicus [10]): Active
Activity (Rattus norvegicus [11]): Active
Activity (Rattus norvegicus [12]): 1.11 g/dL
Activity (Rattus norvegicus [13]): inactive
Activity (Rattus norvegicus [14]): 64.7 g/L
Activity (Rattus norvegicus [15]): inactive
Activity (Rattus norvegicus [16]): Active
Activity (Rattus norvegicus [17]): 48.9 g/L
Activity (Rattus norvegicus [18]): Active
Activity (Rattus norvegicus [19]): 1.45 g/dL
Activity (Rattus norvegicus [20]): Active
Activity (Rattus norvegicus [21]): 0.2633 mg/dL
Activity (Rattus norvegicus [22]): 17.8333 mg/dL
Activity (Rattus norvegicus [23]): Active
Activity (Rattus norvegicus [24]): 2.25 cm
Activity (Rattus norvegicus [25]): 74.03 g
Activity (Rattus norvegicus [26]): 7.576 mg/dL
Activity (Rattus norvegicus [27]): 0.2567 mg/dL
Activity (Rattus norvegicus [28]): 79.7 g
Activity (Rattus norvegicus [29]): 11.3 mmol/L
Activity (Rattus norvegicus [30]): 2.39 cm
Activity (Rattus norvegicus [31]): 14.1333 mmol/L
Activity (Rattus norvegicus [32]): Active
Activity (Rattus norvegicus [33]): inactive
Activity (Rattus norvegicus [34]): 2.8 cm

Source: ChEMBL document CHEMBL5223154, “9-Demethoxy-medicarpin: A potential bone health supplement for the management of protein deficiency-induced bone loss in growing rats” (2023)
